Several values for one entry are separate records, joined by “and”; a condition that tells them apart may be missing. Equal entries are not always repeated. Entries after “also recorded” stand apart in the source; their conditions may differ. Where two headings read alike, the source gives them in different places.
Columns and labels:
human soluble ENPP1 = target: T1, human soluble ENPP1 (Homo sapiens, UniProt P22413); test: Enzyme-based ENPP1 inhibitory assay (pNP-TMP substrate, 405 nm); format: biochemical; conditions: for inhibition at 10 µM: pH 9, 10 μM compound, 200 μM pNP-TMP, pH 9.0, 37 °C; for IC50: three independent enzymatic assays, read-out: IC50 against ENPP1 (enzymatic assay)
T1 construct: addition of 20 ng of human soluble ENPP1; His; made in house; host or cells: 293-F cells (protein harvested from the medium)
T1 sequence (P22413 103-925 limits assumed): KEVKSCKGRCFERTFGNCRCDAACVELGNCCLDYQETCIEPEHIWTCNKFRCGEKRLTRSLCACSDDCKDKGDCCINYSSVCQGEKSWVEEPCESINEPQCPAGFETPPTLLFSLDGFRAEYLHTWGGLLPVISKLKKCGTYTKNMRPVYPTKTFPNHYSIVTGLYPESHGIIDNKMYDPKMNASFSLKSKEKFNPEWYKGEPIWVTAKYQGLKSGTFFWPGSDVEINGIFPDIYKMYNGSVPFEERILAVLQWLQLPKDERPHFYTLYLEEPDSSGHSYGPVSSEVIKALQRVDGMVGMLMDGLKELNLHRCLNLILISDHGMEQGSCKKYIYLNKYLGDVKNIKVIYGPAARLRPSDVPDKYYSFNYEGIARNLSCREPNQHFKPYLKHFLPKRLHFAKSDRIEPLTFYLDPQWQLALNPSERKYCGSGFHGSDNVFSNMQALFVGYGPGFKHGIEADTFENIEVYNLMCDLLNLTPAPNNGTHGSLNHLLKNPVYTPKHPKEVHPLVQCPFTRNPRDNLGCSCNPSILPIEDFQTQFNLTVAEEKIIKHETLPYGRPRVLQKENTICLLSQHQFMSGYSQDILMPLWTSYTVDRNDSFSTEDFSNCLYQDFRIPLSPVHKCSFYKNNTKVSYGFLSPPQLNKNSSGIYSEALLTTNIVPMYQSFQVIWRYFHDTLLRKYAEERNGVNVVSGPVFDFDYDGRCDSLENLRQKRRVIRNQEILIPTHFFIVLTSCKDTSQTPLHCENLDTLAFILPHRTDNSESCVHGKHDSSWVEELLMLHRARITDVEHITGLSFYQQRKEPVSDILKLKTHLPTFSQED
Protocol: In total, 1 mg hENPP1-HIS DNA using polyethylenimine at a DNA:PEI ratio of 1:3 was transfected into 1 L of 293-F cells in 293 freestyle medium. The medium was harvested after five days and filter-sterilized. […] Approximately 1 mg of purified protein was obtained from the 1-liter culture. The quality of the protein purification was validated by SDS-PAGE analysis (see Figure S1).
The initial screenings were carried out at 37 °C in a total volume of 0.1 mL of the following incubation mixture: 1 mM CaCl2, 200 μM ZnCl2, 50 mM Tris, pH 9.0, and 10 μM of each test compound. The enzyme reactions began with the addition of 20 ng of human soluble ENPP1, then incubated at 37 °C for 10 min and initiated by the addition of 200 μM pNP-TMP. The production of p-nitrophenol was measured after 30 min reaction at 405 nm. […] For the blank samples, the enzyme was added at the end of the reaction and read immediately. The IC50 values of test compounds were calculated by plotting three independent experiments using the program Prism 5.0. Incubation and operation conditions remained the same as those described above.

IFN-β in serum = test: IFN-β in mouse serum by ELISA after i.v. administration; format: in vivo, BALB/c nude mice; conditions: blood after 0.5 h
Protocol: The animal studies were conducted with the approval of the Animal Care and Use Committee at Fudan University. BALB/c nude mice (6−8 weeks) were randomized into three groups (n = 3, with a total tumor number of 9). Free cGAMP (at dose of 5 mg/kg) and cGAMP-compound 4e (at doses of 5 mg/kg cGAMP and 0.5 mg/kg compound 4e), respectively, were injected intravenously (i.v.) into mice via tail vein. After i.v. administration, mouse blood samples were collected from ophthalmic vein after 0.5 h and centrifuged at 500× g for 20 min. The concentration of IFN-β in the serum was determined by mouse ELISA kits, according to the instruction manual.

[1] = target: T2, ENPP1 in the MDA-MB-231 cell line (Homo sapiens, UniProt P22413); test: Cellular ENPP1 enzymatic inhibition assay in MDA-MB-231 cells (pNP-TMP); format: cell-based; conditions: 4 h incubation, 200 μM pNP-TMP; three independent cell assays; read-out: IC50 against ENPP1 in MDA-MB-231 cell line
T2 construct: MDA-MB-231 cells highly expressed ENPP1; endogenous in cells; host or cells: MDA-MB-231
T2 sequence (P22413 1-925): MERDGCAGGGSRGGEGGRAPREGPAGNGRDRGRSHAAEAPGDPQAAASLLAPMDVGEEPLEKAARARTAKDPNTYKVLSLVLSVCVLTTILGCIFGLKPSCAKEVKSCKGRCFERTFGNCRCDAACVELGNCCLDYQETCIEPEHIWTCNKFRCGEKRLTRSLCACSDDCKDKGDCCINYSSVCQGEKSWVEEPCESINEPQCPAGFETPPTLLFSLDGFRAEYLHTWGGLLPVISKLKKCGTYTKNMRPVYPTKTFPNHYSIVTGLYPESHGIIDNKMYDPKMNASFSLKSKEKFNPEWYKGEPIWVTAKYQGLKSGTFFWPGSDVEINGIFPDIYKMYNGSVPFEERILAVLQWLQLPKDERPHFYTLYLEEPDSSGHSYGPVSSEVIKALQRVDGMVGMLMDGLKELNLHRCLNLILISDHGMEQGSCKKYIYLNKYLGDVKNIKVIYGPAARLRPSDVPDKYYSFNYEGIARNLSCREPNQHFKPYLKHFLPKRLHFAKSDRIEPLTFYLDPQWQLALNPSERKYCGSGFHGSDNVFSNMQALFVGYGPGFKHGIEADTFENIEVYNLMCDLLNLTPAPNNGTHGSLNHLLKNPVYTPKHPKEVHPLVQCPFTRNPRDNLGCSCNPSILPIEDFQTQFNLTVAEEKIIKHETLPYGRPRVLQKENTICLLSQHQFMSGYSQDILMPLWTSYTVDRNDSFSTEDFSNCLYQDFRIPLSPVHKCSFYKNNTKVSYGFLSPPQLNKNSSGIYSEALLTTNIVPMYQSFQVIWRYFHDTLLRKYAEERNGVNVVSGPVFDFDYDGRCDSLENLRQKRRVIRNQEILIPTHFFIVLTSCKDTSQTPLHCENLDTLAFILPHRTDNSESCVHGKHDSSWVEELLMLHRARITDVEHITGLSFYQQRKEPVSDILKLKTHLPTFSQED
Protocol: MDA-MB-231 (1.0 × 10^4 cells/well) were grown on 96-well microplates (IWAKI) overnight in the culture medium (100 μL/well) in a humidified incubator containing 5% CO2 in air at 37 °C for 24 h. The plates were washed with D-Hanks (100 μL) twice, and fresh D-Hanks (80 μL) was added. 5% DMSO or test compound (10 μL) was added to each well, and eventually pNP-TMP (2 mM, 10 μL, final 200 μM) was added. After 4 h incubation at 37 °C, the amounts of released p-nitrophenolate were measured at 405 nm. The IC50 values of test compounds were calculated by plotting three independent experiments using the program Prism 5.0 [38].

4T1 cell line = test: Cell proliferation assay (CCK8), 4T1; format: cell-based; conditions: CCK8, 48 h, read-out: IC50 against 4T1 cell line
Protocol: In total, 1 × 10^4 cells (4T1, LO2 and 293T) were plated in 96-well flat-bottom plates in a final volume of 200 μL DMEM supplemented with 10% FBS and cultured for 24 h. Next, the culture was replaced by fresh DMEM medium (200 μL) and the compound (10 μL) was added. After forty-eight hours, the medium was replaced by PBS (180 μL) mixture with CCK8 solution (20 μL) in each well. Cell viability was evaluated by testing the OD450 nm. The data were processed by GraphPad Prism 7.0 [45, 46].

293T cell line = test: Cell viability assay (CCK8), 293T; format: cell-based
Protocol: (§1) Next, the culture was replaced by fresh DMEM medium (200 μL) and the compound (10 μL) was added. After forty-eight hours, the medium was replaced by PBS (180 μL) mixture with CCK8 solution (20 μL) in each well. Cell viability was evaluated by testing the OD450 nm. The data were processed by GraphPad Prism 7.0 [45, 46].

LO2 cell line = test: Cell viability assay (CCK8), LO2; format: cell-based
Protocol: as §1

## COc1ccc2[nH]c(SCc3nc4c(Br)cccc4c(=O)[nH]3)nc2n1 [Compound 4h, 8-Bromo-2-(((5-methoxy-1H-imidazo[4,5-b]pyridin-2-yl)thio)methyl)quinazoli-n-4(3H)-one]
Human soluble ENPP1
  inhibition at 10 µM: 55.5%

## COc1ccc2[nH]c(SCc3nc4cc(Cl)ccc4c(=O)[nH]3)nc2n1 [Compound 4f, 7-Chloro-2-(((5-methoxy-1H-imidazo[4,5-b]pyridin-2-yl)thio)methyl)quinazolin-4(3H)-one]
Human soluble ENPP1
  inhibition at 10 µM: 52.9%

## COc1ccc2nc(CSc3nc4nc(OC)ccc4[nH]3)[nH]c(=O)c2c1 [Compound 4b, 6-Methoxy-2-(((5-methoxy-1H-imidazo[4,5-b]pyridin-2-yl)thio)methyl)quinaz-olin-4(3H)-one]
Human soluble ENPP1
  inhibition at 10 µM: 76.5%

## Nc1nc2c(ncn2[C@@H]2O[C@@H]3COP(=O)(O)O[C@H]4[C@@H](O)[C@H](n5cnc6c(N)ncnc65)O[C@@H]4COP(=O)(O)O[C@@H]2[C@@H]3O)c(=O)[nH]1 [cGAMP, 2′,3′-cyclic GMP-AMP, reference compound]
IFN-β in serum; 5 mg/kg cGAMP i.v.
  IFN-β in serum, free cGAMP compared with model mice: upregulation

## COc1ccc2[nH]c(SCc3nc4cccc(F)c4c(=O)[nH]3)nc2n1 [Compound 4a, 5-Fluoro-2-(((5-methoxy-1H-imidazo[4,5-b]pyridin-2-yl)thio)methyl)quinazol-in-4(3H)-one]
Human soluble ENPP1
  inhibition at 10 µM: 72.2%

## COC(=O)c1ccc2c(=O)[nH]c(CSc3nc4nc(OC)ccc4[nH]3)nc2c1 [Compound 4d, Methyl 2-(((5-methoxy-1H-imidazo[4,5-b]pyridin-2-yl)thio)methyl)-4-oxo-3,4-dihydroquina-zoline-7-carboxylate]
Human soluble ENPP1
  inhibition at 10 µM: > 90%
  IC50: 694 nM
[1]
  IC50: 3340 nM

## COc1ccc2[nH]c(SCc3nc4c(C)cccc4c(=O)[nH]3)nc2n1 [Compound 4g, 2-(((5-Methoxy-1H-imidazo[4,5-b]pyridin-2-yl)thio)methyl)-8-methylquinazoli-n-4(3H)-one]
Human soluble ENPP1
  inhibition at 10 µM: 72.7%

## N.N.[Cl][Pt][Cl] [Cisplatin, cisplatin, reference compound]
4T1 cell line
  IC50: 3200 nM

## COc1ccc2[nH]c(SCc3nc4cc(C)ccc4c(=O)[nH]3)nc2n1 [Compound 4c, 2-(((5-Methoxy-1H-imidazo[4,5-b]pyridin-2-yl)thio)methyl)-7-methylquinazoli-n-4(3H)-one]
Human soluble ENPP1
  inhibition at 10 µM: 75.4%

## COc1ccc2[nH]c(SCc3nc4cc(F)ccc4c(=O)[nH]3)nc2n1 [Compound 4e, 7-Fluoro-2-(((5-methoxy-1H-imidazo[4,5-b]pyridin-2-yl)thio)methyl)quinazolin-4(3H)-one]
293T cell line; 50 μM, CCK8, 48 h
  cytotoxic effect (% inhibition) against 293T: 9.35%
293T cell line; highest concentration 50 μM
  cytotoxic effect on 293T (in words): nonsignificant cytotoxic effect; also recorded: negligible cytotoxic effects
LO2 cell line; 50 μM, CCK8, 48 h
  cytotoxic effect (% inhibition) against LO2: 15.33%
LO2 cell line; highest concentration 50 μM
  cytotoxic effect on LO2 (in words): nonsignificant cytotoxic effect; also recorded: negligible cytotoxic effects
Human soluble ENPP1
  inhibition at 10 µM: > 90%
  IC50: 188 nM and < 1000 nM
[1]
  IC50: < 1000 nM and 732 nM
4T1 cell line; Mus musculus, 4T1
  IC50: 2990 nM
IFN-β in serum; 5 mg/kg cGAMP and 0.5 mg/kg compound 4e i.v.
  IFN-β expression level in serum, cGAMP-compound 4e group compared with free-cGAMP group: higher

From paper PMC9266353, “Development of Novel Ecto-Nucleotide Pyrophosphatase/Phosphodiesterase 1 (ENPP1) Inhibitors for Tumor Immunotherapy” (International Journal of Molecular Sciences, 2022)
